These results are taken from US7083799B1, “No-synthase inhibitors” (L'Oreal, priority 1995, dated 2006).

Data set [1] has as its system mouse ear oedema induced by 0.01% 2-(5,6,7,8-tetrahydro-5,5,8,8-tetramethyl-2-naphthyl)-6-benzo[b]thiophenecarboxylic acid. Briefly: mouse ear oedema test (ear thickness) induced by topical application of an irritant retinoid. The format is in vivo, mouse (Balb/C).
The test system of another data set is mouse ear. Particulars: in vivo.
The test system of data set [2] is mouse ear oedema induced by 0.01% 2-(5,6,7,8-tetrahydro-5,5,8,8-tetramethyl-2-naphthyl)-6-benzo[b]thiophenecarboxylic acid. Briefly: mouse ear oedema test (ear thickness) induced by topical application of an irritant retinoid. Particulars: curative. The format is in vivo, mouse (Balb/C). The method, then: This increase in the thickness of the mouse ear appears to be due to an increase in the thickness of the epidermis and to the appearance of a dermal oedema. This response can therefore be easily measured with the aid of an apparatus, such as the oditest.
(§1) 5 (=group 2) of the 10 mice thus treated are made to ingest orally N^G-nitro-L-arginine methyl ester in drinking water from t=0 and once per day for 11 days (N^G-nitro-L-arginine methyl ester concentration of 1 mg/ml, that is to say 170±40 mg/kg per day).
[…] The 5 mice which were not treated with […] constitute group 1.

Data set [3] can be described thus: observation of toxicity and weight change in mice given the inhibitor orally. It is filed as in vivo, mouse (Balb/C). As to conditions: oral in drinking water 1 mg/ml (170±40 mg/kg per day), once per day for 11 days. How it is done:
as §1

Setting [4] is: gel 1% by weight, topical once per day for 4 days before the irritant, preventive, group A vs group B.
[5] abbreviates: 1% by weight, topical from 6 hours after the irritant, once per day for 5 days.
Setting [6] is: 5%, topical from 6 hours after the irritant, once per day for 5 days, curative.

Take `CN(C)C(N)=NCCC[C@H](N)C(=O)O` [N^G,N^G-dimethylarginine]: in data set [1] (setting [4]), the “reduction of the amplitude of the response induced by the irritant product” value is 24% and the “reduction of the area under the curve of the response induced by the irritant product (ear thickness vs days)” value (“reduction of the area” below) worked out at 50%. The “increase in the thickness of the ear by the inhibitor gel alone” value in the data set with mouse ear was “No increase”.

In the case of `CN=C(NC)NCCC[C@H](N)C(=O)O` [SDMA, N^G,N^G-dimethyl-L-arginine, reference compound], in data set [2] (setting [5]), the “inhibition of the ear oedema” value was 7% and the “reduction of the area” value is on record as 27%.

Regarding `COC(=O)[C@@H](N)CCCNC(=N)N[N+](=O)[O-]` [N^G-nitro-L-arginine methyl ester, methyl ester of N^G-nitro-L-arginine], in data set [3], the change in weight result is given as “not modified” and the sign of toxicity result is listed as “no sign of toxicity”. The “increase in the thickness of the mouse ear (maximum of group 1 without inhibitor = 100%)” value in data set [2] (oral in drinking water 1 mg/ml (170±40 mg/kg per day) from t=0, once per day, after 5 days of treatment) amounted to 70%. Further, the “inhibition of the ear oedema” value in data set [2] (oral in drinking water 1 mg/ml (170±40 mg/kg per day) from t=0, after 5 days) stood at 30%.

Take `CNC(=N)NCCC[C@H](N)C(=O)O` [L-NMMA, N^G-monomethyl-L-arginine]: in data set [2] (setting [5]), the “inhibition of the ear oedema” value is given as 28% and the “reduction of the area” value worked out at 51%. Moreover, the “increase in the thickness of the mouse ear (maximum of group 1 without inhibitor = 100%)” value in data set [2] (gel 1% by weight, topical from 6 hours after the irritant, once per day for 5 days, after 5 days) was determined as 72%.

Regarding `C[N+](C)(C)CC(=O)O` [betaine, reference compound], in data set [1] (setting [6]), the “inhibition of the ear oedema” value is listed as 16% and the “reduction of the area” value amounted to 13%. Further, in data set [2] (setting [5]), the “inhibition of the ear oedema” value is on record as 9% and the “reduction of the area” value worked out at 24%.
